Data published in patent US6376670B1, “Quinoline-indole antimicrobial agents, uses and compositions related thereto” (Sepracor Inc., priority 1997, dated 2002).
Converted amounts (≈) assume the structure as drawn. Where two headings read alike, the source gives them in different places. Blank lines part the entries; values can stand above or below the compound they belong to.

Columns and labels:
Assay in all cases: Determination of MIC values (BHI broth, 96 well microtiter plate)
Assay type in all cases: cell-based
Streptococcus pneumoniae = settings: BHI broth; for MIC: Streptococcus pneumoniae, read-out: MIC S. pneu
Method in brief: (§1)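 MIC was read as the lowest drug concentration without observable growth after roughly 16 h at 37 °C under about 7–10% CO2. Wells held BHI broth with compound at final 25–0.39 μg/mL (1:100 from DMSO dilutions). Each well was inoculated at 10^5–10^6 cells/mL.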

[1] = tested on: methicillin-resistant Staphylococcus aureus (MRSA); settings: BHI broth; for MIC: Staphylococcus aureus, MRSA, read-out: MIC MRSA
Method in brief: as §1

[2] = tested on: vancomycin-resistant Enterococcus spp. (VRE); settings: BHI broth; for MIC: Enterococcus, VRE, read-out: MIC VREF
Method in brief: as §1

[3] = 37° C., overnight (about 16 hours)
[4] = 16 h, 37° C., overnight (about 16 hours)

MIC (Streptococcus pneumoniae; S. pneu, overnight 37° C.): > 25 µg/mL
MIC ([1]; overnight 37° C.): > 25 µg/mL
MIC ([2]; VREF, overnight 37° C.): > 25 µg/mL
Compound: Cc1cccc2c(-c3ccc4cc(Cl)ccc4n3)c[nH]c12 [Example 291]

MIC (Streptococcus pneumoniae; 37° C., about 16 hours): < 7 µg/mL
MIC ([1]; 16 h, 37° C., about 16 hours): < 7 µg/mL
MIC ([2]; 16 h, 37° C., about 16 hours): > 25 µg/mL
Compound: Cc1ccc2nc(-c3c[nH]c4ccc(Br)cc34)ccc2c1 [Example 432]

MIC (Streptococcus pneumoniae; [3]): > 25 µg/mL
MIC [1, 4]: > 25 µg/mL
MIC [2, 4]: > 25 µg/mL
Compound: Cc1cccc2c(-c3ccc4cc(Cl)ccc4n3)c[nH]c12 [Example 199]

MIC (Streptococcus pneumoniae; S. pneu, overnight 37° C.): < 7 µg/mL
MIC ([1]; overnight 37° C.): < 7 µg/mL
MIC ([2]; VREF, overnight 37° C.): < 7 µg/mL
Compound: Cn1cc(-c2ccc3cc(Cl)ccc3n2)c2cc(O)ccc21 [Example 221]

MIC (Streptococcus pneumoniae; 37° C., about 16 hours): > 25 µg/mL
MIC ([1]; 16 h, 37° C., about 16 hours): > 25 µg/mL
MIC ([2]; 16 h, 37° C., about 16 hours): > 25 µg/mL
Compound: COc1ccc2nc(-c3c(C)[nH]c4ccccc34)ccc2c1 [Example 449]

MIC (Streptococcus pneumoniae; 37° C., about 16 hours): < 7 µg/mL
MIC ([1]; 16 h, 37° C., about 16 hours): < 7 µg/mL
MIC VREF ([2]; 37° C., about 16 hours): <7 µg/mL
Compound: OCc1cc(-c2c[nH]c3ccc(Br)cc23)nc2cc(Cl)ccc12 [Example 456]

MIC (Streptococcus pneumoniae; 37° C., about 16 hours): < 7 µg/mL
MIC ([1]; 16 h, 37° C., about 16 hours): < 7 µg/mL
MIC ([2]; 16 h, 37° C., about 16 hours): > 25 µg/mL
Compound: Cc1ccc2nc(-c3c[nH]c4cc(Cl)ccc34)ccc2c1 [Example 436]

MIC S. pneu (Streptococcus pneumoniae; 37° C., about 16 hours): < 7 µg/mL
MIC MRSA ([1]; 37° C., about 16 hours): < 7 µg/mL
MIC VREF ([2]; 37° C., about 16 hours): >25 µg/mL
Compound: OCc1cc(-c2c[nH]c3ccc(Br)cc23)nc2ccc(Cl)cc12 [Example 491]

MIC (Streptococcus pneumoniae; 37° C., about 16 hours): 25 µg/mL (≈ 71.9 µM)
MIC ([1]; 16 h, 37° C., about 16 hours): 25 µg/mL (≈ 71.9 µM)
MIC ([2]; 16 h, 37° C., about 16 hours): > 25 µg/mL
Compound: Clc1ccc2c(Cl)cc(-c3c[nH]c4cc(Cl)ccc34)nc2c1 [Example 463]

Continued, compound first:

Compound: Cn1cc(-c2cc(C(=O)NCc3ccc(CN)cc3)c3cc(C#CCNCC4CCCCC4)ccc3n2)c2cc(Br)ccc21 [Example 391]
MIC (Streptococcus pneumoniae; S. pneu, overnight 37° C.): < 7 µg/mL
MIC ([1]; overnight 37° C.): < 7 µg/mL
MIC ([2]; VREF, overnight 37° C.): < 7 µg/mL

Compound: c1ccc(COc2ccc3[nH]cc(-c4ccc5ccccc5n4)c3c2)cc1 [Example 184]
MIC (Streptococcus pneumoniae; [3]): < 7 µg/mL
MIC [1, 4]: > 25 µg/mL
MIC [2, 4]: > 25 µg/mL

Compound: Clc1ccc2c(Cl)cc(-c3c[nH]c4ccc(Br)cc34)nc2c1 [Example 460]
MIC (Streptococcus pneumoniae; 37° C., about 16 hours): < 7 µg/mL
MIC ([1]; 16 h, 37° C., about 16 hours): < 7 µg/mL
MIC ([2]; 16 h, 37° C., about 16 hours): < 7 µg/mL

Compound: NCc1cccc(CNC(=O)c2cc(-c3c[nH]c4ccc(Br)cc34)nc3ccc(I)cc23)c1 [Example 116]
MIC (Streptococcus pneumoniae; [3]): < 7 µg/mL
MIC [1, 4]: < 7 µg/mL
MIC [2, 4]: < 7 µg/mL

Compound: NCCCCCNC(=O)c1cc(-c2c[nH]c3ccc(Br)cc23)nc2ccc(I)cc12 [Example 110]
MIC (Streptococcus pneumoniae; [3]): < 7 µg/mL
MIC [1, 4]: < 7 µg/mL
MIC [2, 4]: < 7 µg/mL

Compound: NCc1ccc(CNC(=O)c2cc(-c3c[nH]c4ccc(Br)cc34)nc3cc(Cl)c(C#CCN4CCc5ccccc5C4)cc23)cc1 [Example 281]
MIC (Streptococcus pneumoniae; S. pneu, overnight 37° C.): > 25 µg/mL
MIC ([1]; overnight 37° C.): < 25 µg/mL
MIC ([2]; VREF, overnight 37° C.): > 25 µg/mL

Compound: NCC1CCCC(CNC(=O)c2cc(-c3c[nH]c4ccc(Br)cc34)nc3c(F)cccc23)C1 (stereo not drawn) [Example 259]
MIC (Streptococcus pneumoniae; S. pneu, overnight 37° C.): < 7 µg/mL
MIC ([1]; overnight 37° C.): < 7 µg/mL
MIC ([2]; VREF, overnight 37° C.): < 7 µg/mL

Compound: Cc1cc2nc(-c3c[nH]c4ccc(Br)cc34)cc(C(=O)NCC3CCCC(CN)C3)c2cc1C (stereo not drawn) [Example 127]
MIC (Streptococcus pneumoniae; [3]): < 7 µg/mL
MIC [1, 4]: < 7 µg/mL
MIC [2, 4]: < 7 µg/mL

Compound: O=C(c1cc(-c2c[nH]c3ccc(Br)cc23)nc2ccc(I)cc12)N1CCCNCC1 [Example 117]
MIC (Streptococcus pneumoniae; [3]): < 7 µg/mL
MIC [1, 4]: < 7 µg/mL
MIC [2, 4]: < 7 µg/mL

Compound: NCCNC(=O)c1cc(-c2c[nH]c3ccc(Br)cc23)nc2cc(Cl)c(C#CCN3CCSCC3)cc12 [Example 528]
MIC (Streptococcus pneumoniae; 37° C., about 16 hours): < 7 µg/mL
MIC ([1]; 16 h, 37° C., about 16 hours): < 7 µg/mL
MIC ([2]; 16 h, 37° C., about 16 hours): < 7 µg/mL

Compound: Cc1cc2nc(-c3c[nH]c4ccc(Br)cc34)cc(C(=O)NCC3CCC(CN)CC3)c2cc1C (stereo not drawn) [Example 128]
MIC (Streptococcus pneumoniae; [3]): < 7 µg/mL
MIC [1, 4]: < 7 µg/mL
MIC [2, 4]: < 7 µg/mL

Compound: NCc1ccc(CNC(=O)c2cc(-c3c[nH]c4ccc(Br)cc34)nc3c(C#CCN4CC=CCC4)cccc23)cc1 [Example 305]
MIC (Streptococcus pneumoniae; S. pneu, overnight 37° C.): < 7 µg/mL
MIC ([1]; overnight 37° C.): < 7 µg/mL
MIC ([2]; VREF, overnight 37° C.): < 7 µg/mL

Compound: NCc1ccc(CNC(=O)c2cc(-c3c[nH]c4ccc(Cl)cc34)nc3ccc(I)cc23)cc1 [Example 224]
MIC (Streptococcus pneumoniae; S. pneu, overnight 37° C.): < 7 µg/mL
MIC ([1]; overnight 37° C.): < 7 µg/mL
MIC ([2]; VREF, overnight 37° C.): < 7 µg/mL

Compound: NCC1CCC(CNC(=O)c2cc(-c3c[nH]c4ccc(Br)cc34)nc3c(F)cccc23)CC1 (stereo not drawn) [Example 258]
MIC (Streptococcus pneumoniae; S. pneu, overnight 37° C.): < 7 µg/mL
MIC ([1]; overnight 37° C.): < 7 µg/mL
MIC ([2]; VREF, overnight 37° C.): < 7 µg/mL

Compound: COc1ccc2[nH]c(C)c(-c3ccc4c([N+](=O)[O-])cccc4n3)c2c1 [Example 386]
MIC (Streptococcus pneumoniae; S. pneu, overnight 37° C.): > 25 µg/mL
MIC ([1]; overnight 37° C.): > 25 µg/mL
MIC ([2]; VREF, overnight 37° C.): > 25 µg/mL

Compound: O=[N+]([O-])c1ccc2[nH]cc(-c3cc(Cl)c4ccccc4n3)c2c1 [Example 349]
MIC (Streptococcus pneumoniae; S. pneu, overnight 37° C.): > 25 µg/mL
MIC ([1]; overnight 37° C.): > 25 µg/mL
MIC ([2]; VREF, overnight 37° C.): > 25 µg/mL
